Laboratory results: PubChem BioAssay AID330 (DTP/NCI, 2004)
Inconclusive results and toxic doses are left out.

System: P388 leukemia ip, CD2F1 mice, survival T/C
Test: NCI In Vivo Anticancer Drug Screen. Data for tumor model P388 Leukemia (intraperitoneal) in CD2F1 (CDF1) mice
Conditions: endpoint: median survival time, higher = longer survival
Outline: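 Mice carrying the transplanted tumor received test compound or vehicle. Survival was recorded in each group, and the value is the treated-group measurement divided by that of the vehicle-treated control group.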

[1] = dose: 6.25 mg/kg/injection, schedule: Q01DX005 (ip), vehicle: saline with Tween-80
[2] = dose: 12.5 mg/kg/injection, schedule: Q01DX005 (ip), vehicle: saline with Tween-80
[3] = dose: 50.0 mg/kg/injection, schedule: Q01DX005 (ip), vehicle: Klucel (hydroxypropylcellulose) (HPC)

## O=c1oc2cc(O)ccc2c2oc3ccccc3c12
dose: 6.2 mg/kg/injection, schedule: Q01DX007 (ip), vehicle: carboxymethylcellulose (CMC)
  T/C: 91 % of control
dose: 12.5 mg/kg/injection, schedule: Q01DX007 (ip), vehicle: carboxymethylcellulose (CMC)
  T/C: 91 % of control
dose: 25.0 mg/kg/injection, schedule: Q01DX007 (ip), vehicle: carboxymethylcellulose (CMC)
  T/C: 100 % of control

## Cc1cc(C)nc(NS(=O)(=O)c2ccc(NC(=O)C(Cl)(Cl)Cl)cc2)n1
[1]
  T/C: 104 % of control
[2]
  T/C: 101 % of control
dose: 25.0 mg/kg/injection, schedule: Q01DX005 (ip), vehicle: saline with Tween-80
  T/C: 94 % of control

## CCOC(=O)/C=C(/Nc1cccc(OC)c1)c1ccccc1
dose: 25.0 mg/kg/injection, schedule: Q01DX009 (ip), vehicle: other
  T/C: 97 % of control
dose: 50.0 mg/kg/injection, schedule: Q01DX009 (ip), vehicle: other
  T/C: 103 % of control
dose: 100.0 mg/kg/injection, schedule: Q01DX009 (ip), vehicle: other
  T/C: 98 % of control
dose: 200.0 mg/kg/injection, schedule: Q01DX009 (ip), vehicle: other
  T/C: 91 % of control
dose: 400.0 mg/kg/injection, schedule: Q01DX009 (ip), vehicle: other
  T/C: 105 % of control

## CCC[N+]1(CC)CCCCC1
dose: 3.12 mg/kg/injection, schedule: Q01DX009 (ip), vehicle: saline
  T/C: 103 % of control
dose: 6.25 mg/kg/injection, schedule: Q01DX009 (ip), vehicle: saline
  T/C: 99 % of control
dose: 12.5 mg/kg/injection, schedule: Q01DX009 (ip), vehicle: saline
  T/C: 100 % of control

## CNCCC1CCCCC1
[3]
  T/C: 110 % of control

## CS/C(=C1/C(=O)N(c2ccccc2)N=C1c1ccc(Cl)cc1)N1CC1
dose: 25.0 mg/kg/injection, schedule: Q04DX003 (ip), vehicle: Klucel (hydroxypropylcellulose) (HPC)
  T/C: 96 % of control
dose: 50.0 mg/kg/injection, schedule: Q04DX003 (ip), vehicle: Klucel (hydroxypropylcellulose) (HPC)
  T/C: 99 % of control
dose: 100.0 mg/kg/injection, schedule: Q04DX003 (ip), vehicle: Klucel (hydroxypropylcellulose) (HPC)
  T/C: 99 % of control
dose: 200.0 mg/kg/injection, schedule: Q04DX003 (ip), vehicle: Klucel (hydroxypropylcellulose) (HPC)
  T/C: 99 % of control
dose: 400.0 mg/kg/injection, schedule: Q04DX003 (ip), vehicle: Klucel (hydroxypropylcellulose) (HPC)
  T/C: 91 % of control

## CC1CCC(C(C)(C)c2ccccc2)CC1OC(=O)/C=C/CC(C)(C)CC=C1C2CCC1N(C(=O)OCC(Cl)(Cl)Cl)N2C(=O)OCC(Cl)(Cl)Cl (centres undefined)
dose: 25.0 mg/kg/injection, schedule: Q01DX005 (ip), vehicle: Klucel (hydroxypropylcellulose) (HPC)
  T/C: 89 % of control
[3]
  T/C: 89 % of control

## CC1(C)N=C(N)N=C(N)N1c1ccc(OCCCNC(=O)Nc2cccc(S(=O)(=O)F)c2)c(Cl)c1
dose: 25.0 mg/kg/injection, schedule: Q01DX009 (ip), vehicle: saline
  T/C: 179 % of control
dose: 50.0 mg/kg/injection, schedule: Q01DX009 (ip), vehicle: saline
  T/C: 190 % of control
dose: 100.0 mg/kg/injection, schedule: Q01DX009 (ip), vehicle: saline
  T/C: 209 % of control

## CCCOC1C=C(C)C(=O)O1 (centres undefined)
dose: 40.5 mg/kg/injection, schedule: Q01DX005 (ip), vehicle: saline with Tween-80
  T/C: 103 % of control
dose: 81.0 mg/kg/injection, schedule: Q01DX005 (ip), vehicle: saline with Tween-80
  T/C: 104 % of control
dose: 162.0 mg/kg/injection, schedule: Q01DX005 (ip), vehicle: saline with Tween-80
  T/C: 112 % of control

## O/N=C\c1cc2ccccc2c[n+]1Cc1ccc2ccc3cccc4ccc1c2c34
[1]
  T/C: 108 % of control
[2]
  T/C: 108 % of control

## NC(=S)N/N=C\c1ncnc2ccccc12
dose: 1.0 mg/kg/injection, schedule: Q01DX009 (ip), vehicle: saline with Tween-80
  T/C: 104 % of control
dose: 2.0 mg/kg/injection, schedule: Q01DX009 (ip), vehicle: saline with Tween-80
  T/C: 118 % of control
dose: 4.0 mg/kg/injection, schedule: Q01DX009 (ip), vehicle: saline with Tween-80
  T/C: 100 % of control
dose: 12.0 mg/kg/injection, schedule: Q01DX009 (ip), vehicle: saline with Tween-80
  T/C: 154 % of control
dose: 12.5 mg/kg/injection, schedule: Q01DX009 (ip), vehicle: saline with Tween-80
  T/C: 150 % of control
dose: 12.5 mg/kg/injection, schedule: Q04DX003 (ip), vehicle: saline with Tween-80
  T/C: 112 % of control
dose: 18.0 mg/kg/injection, schedule: Q01DX009 (ip), vehicle: saline with Tween-80
  T/C: 172 % of control
dose: 25.0 mg/kg/injection, schedule: Q04DX003 (ip), vehicle: saline with Tween-80
  T/C: 116 % of control
dose: 50.0 mg/kg/injection, schedule: Q04DX003 (ip), vehicle: saline with Tween-80
  T/C: 120 % of control
